Measurements taken from paper PMC11915372, “Identification of a Series Containing a Pentafluorophenyl Moiety That Targets Pks13 to Inhibit Growth of Mycobacterium tuberculosis” (ACS Infectious Diseases, 2025).
Several values for one entry are separate records, joined by “and”; a condition that tells them apart may be missing. Identical values can stand only once.

System: H37Rv cells
Assay type: cell-based, Mycobacterium tuberculosis

CN(C)c1ncnc2sc(-c3c(F)c(F)c(F)c(F)c3F)nc12.Cl [Compound 1, CN(C)c1ncnc2sc(nc12)-c1c(c(c(c(c1F)F)F)F)F]
frequency of resistant colonies: 10^–7 and 10^–8
